From PubChem BioAssay (NCI) come the findings set out here.

Among the test systems are DLD-1 colon; DMS 114 small cell lung; DMS 273 small cell lung; HOP-18 NSCLC; M19-MEL melanoma; SNB-78 CNS; XF 498 CNS; KM20L2 colon; LXFL 529 NSCLC; RXF-631 renal.
Holding throughout (test): NCI tumour cell line growth inhibition, 48 h

Structures are written as SMILES.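 Five compound concentrations were applied to cells in 96-well plates for 48 hours; endpoints were derived by simple linear interpolation of the resulting dose-response curve. The concentration for full growth arrest is given as TGI.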

On to `COc1cccc(/C=C2\C(=O)N(C(=O)Cc3ccccc3)N=C2C)c1`, for which the TGI with DLD-1 colon, in the experiment with DMS 114 small cell lung, in the experiment with DMS 273 small cell lung, with HOP-18 NSCLC, with M19-MEL melanoma and in the experiment on SNB-78 CNS was over 100 µM throughout. Besides, the TGI in the experiment with XF 498 CNS is over 100 µM.

Take `C/C(CN1C(=O)c2ccccc2C1=O)=N\NS(=O)(=O)c1ccc(F)cc1`: the TGI in the experiment on DLD-1 colon, in the experiment on DMS 114 small cell lung, in the experiment on DMS 273 small cell lung, in the experiment with HOP-18 NSCLC, in the experiment on KM20L2 colon and in the experiment on LXFL 529 NSCLC was over 100 µM throughout. For the same compound, the TGI in the experiment on SNB-78 CNS and with XF 498 CNS was over 100 µM throughout.

On to `CCOC(=O)c1cn2c([nH]c3ccccc32)c(C#N)c1=O`, for which the TGI with DLD-1 colon, in the experiment with DMS 273 small cell lung, with HOP-18 NSCLC, with KM20L2 colon, in the experiment with LXFL 529 NSCLC and in the experiment with M19-MEL melanoma was over 100 µM each time. For the same compound, the TGI with RXF-631 renal, in the experiment on SNB-78 CNS and in the experiment on XF 498 CNS was over 100 µM throughout.

In the case of `COC1=CC(=O)c2ccccc2C1(C)C1=NC(C)(C)CO1` (centres undefined), the TGI in the experiment with DLD-1 colon, in the experiment with DMS 114 small cell lung, with DMS 273 small cell lung, with HOP-18 NSCLC, in the experiment with KM20L2 colon and in the experiment on LXFL 529 NSCLC was over 100 µM each time. For the same compound, the TGI in the experiment on M19-MEL melanoma, in the experiment with RXF-631 renal and in the experiment on XF 498 CNS was over 100 µM each time.

On to `COC(=O)c1cc(C)n(NC(=O)OC(C)(C)C)c1C`, for which the TGI in the experiment with DLD-1 colon, with DMS 114 small cell lung, with DMS 273 small cell lung, in the experiment with KM20L2 colon, with LXFL 529 NSCLC and with M19-MEL melanoma was over 100 µM each time. Moreover, in the experiment with SNB-78 CNS, the TGI is over 100 µM.

Consider `COc1ccc(C2S/C(=C\c3cccc(O)c3)C(=O)N2NC(=O)Cc2ccccc2)cc1` (centres undefined), for which the TGI with DLD-1 colon, with DMS 114 small cell lung, in the experiment with DMS 273 small cell lung, with HOP-18 NSCLC, in the experiment with LXFL 529 NSCLC and in the experiment on M19-MEL melanoma was over 100 µM each time.

In the case of `COc1cc(C2C(Cl)C(=O)N2NC(=O)Cc2ccccc2)ccc1O` (centres undefined), the TGI in the experiment on DLD-1 colon, in the experiment on DMS 114 small cell lung, with DMS 273 small cell lung, with HOP-18 NSCLC, in the experiment with KM20L2 colon and with LXFL 529 NSCLC was over 100 µM throughout. The TGI in the experiment on M19-MEL melanoma, in the experiment on SNB-78 CNS and in the experiment on XF 498 CNS was over 100 µM throughout.

In the case of `O=S(Cc1cc2c(cc1Br)OCO2)c1ccccc1` (centres undefined), the TGI with DLD-1 colon is 49.5 µM; with DMS 114 small cell lung it was 61.8 µM; in the experiment with DMS 273 small cell lung, over 100 µM; in the experiment with HOP-18 NSCLC, over 100 µM; with KM20L2 colon, over 100 µM; in the experiment on LXFL 529 NSCLC it was over 100 µM. The TGI in the experiment on M19-MEL melanoma and with SNB-78 CNS was over 100 µM throughout.

As to `CC1=NN(c2ccccc2)C(=O)C1=C1SCCCS1`, the TGI was 45.9 µM in the experiment with DLD-1 colon; 45.2 µM in the experiment with DMS 114 small cell lung; over 100 µM in the experiment with DMS 273 small cell lung; over 100 µM in the experiment on HOP-18 NSCLC; over 100 µM in the experiment on KM20L2 colon; over 100 µM in the experiment with LXFL 529 NSCLC. Also, the TGI in the experiment on M19-MEL melanoma was over 100 µM; with SNB-78 CNS it was over 100 µM; with XF 498 CNS, 58.6 µM.

As to `NC1=NS(=O)(=O)Nc2nc(-c3cccs3)[nH]c21`, the TGI in the experiment with DLD-1 colon, in the experiment with DMS 273 small cell lung, in the experiment with HOP-18 NSCLC, in the experiment with KM20L2 colon, in the experiment with LXFL 529 NSCLC and with M19-MEL melanoma was over 100 µM each time.

`O=C(O)Cc1ccc2c(c1O)C(=O)c1c(ccc(CC(=O)O)c1O)C2=O`: the TGI with DLD-1 colon, in the experiment on DMS 114 small cell lung, in the experiment on DMS 273 small cell lung, with HOP-18 NSCLC, in the experiment on KM20L2 colon and in the experiment with LXFL 529 NSCLC was over 100 µM each time. In addition, the TGI with M19-MEL melanoma, in the experiment on SNB-78 CNS and in the experiment on XF 498 CNS was over 100 µM in each case.

Take `CCCOCN1COCN=C1NC#N`: the TGI was over 100 µM with DLD-1 colon; 39.7 µM in the experiment with DMS 114 small cell lung; 41.9 µM in the experiment with DMS 273 small cell lung; over 100 µM in the experiment on HOP-18 NSCLC; over 100 µM in the experiment with KM20L2 colon; over 100 µM with LXFL 529 NSCLC. Besides, the TGI in the experiment on M19-MEL melanoma was 88.1 µM; with SNB-78 CNS, over 100 µM; in the experiment with XF 498 CNS, over 100 µM.

Take `CCCCCn1cnc2c1S(=O)(=O)N(C)C(NC(=O)c1ccccc1)=N2`: the TGI with DLD-1 colon, in the experiment on DMS 114 small cell lung, in the experiment on DMS 273 small cell lung, in the experiment with KM20L2 colon, with LXFL 529 NSCLC and in the experiment with M19-MEL melanoma was over 100 µM each time. The compound also registered a TGI in the experiment on SNB-78 CNS of over 100 µM.

In the case of `COc1ccc(/C(Cl)=C/c2ccc(Cl)c(Cl)c2)cc1`, the TGI with DLD-1 colon is over 100 µM; in the experiment on DMS 114 small cell lung, 43.8 µM; in the experiment with DMS 273 small cell lung it was 67.5 µM; in the experiment on HOP-18 NSCLC, 88.9 µM; with KM20L2 colon, 63.7 µM; in the experiment on LXFL 529 NSCLC, over 100 µM. Further, the figures for the TGI with M19-MEL melanoma, in the experiment with SNB-78 CNS and in the experiment on XF 498 CNS were over 100 µM, 72.1 µM and 44.3 µM, respectively.

Consider `O=C(Nc1cc(Cl)c(Cl)cc1Cl)C(=O)C(C(=O)c1ccc2ccccc2c1)C1OC(=O)c2ccccc21` (centres undefined), for which the TGI came to 32.9 µM in the experiment on DLD-1 colon; 44.1 µM with DMS 114 small cell lung; 22.6 µM with LXFL 529 NSCLC; 53.6 µM in the experiment on M19-MEL melanoma; 38.6 µM with SNB-78 CNS.

In the case of `Cn1c2c(cc(-c3ccccc3)c1=O)COc1ccccc1-2`, the TGI with DLD-1 colon was over 100 µM; in the experiment on DMS 114 small cell lung, 36.2 µM; in the experiment with DMS 273 small cell lung it was 43.8 µM; with HOP-18 NSCLC it was over 100 µM; with KM20L2 colon, over 100 µM; with LXFL 529 NSCLC it was over 100 µM. Moreover, the results for the TGI in the experiment with M19-MEL melanoma, in the experiment with SNB-78 CNS and in the experiment on XF 498 CNS were 64.2 µM, over 100 µM and 26.1 µM, respectively.

For `CCCCCC(=O)Cc1cc(OC)cc2c1C(=O)Oc1cc(O)c(C(=O)O)c(CC(=O)CCCCC)c1O2`, the TGI in the experiment with DLD-1 colon was over 100 µM; in the experiment with DMS 114 small cell lung, over 100 µM; in the experiment on DMS 273 small cell lung, over 100 µM; with KM20L2 colon, over 100 µM; in the experiment on LXFL 529 NSCLC it was over 100 µM; with M19-MEL melanoma it was 69.6 µM. Besides, the TGI with RXF-631 renal, in the experiment with SNB-78 CNS and in the experiment with XF 498 CNS was over 100 µM throughout.

Regarding `Cn1c(N)c(-c2c3ccccc3nc3ccccc23)c(=O)n(C)c1=O`, the TGI with DMS 114 small cell lung, in the experiment on HOP-18 NSCLC, with KM20L2 colon, in the experiment on LXFL 529 NSCLC and in the experiment on M19-MEL melanoma was over 100 µM in each case.

Regarding `CO[C@H](c1ccccc1)[C@H](C)N(C)c1ccc2ccccc2c1C1=NC(C)(C)CO1`, the TGI turned out to be 31.8 µM in the experiment on DLD-1 colon; 33.7 µM in the experiment on DMS 114 small cell lung; 39.2 µM in the experiment on DMS 273 small cell lung; 31.9 µM in the experiment with HOP-18 NSCLC; 27.4 µM in the experiment with KM20L2 colon; 49.6 µM with LXFL 529 NSCLC. Also, the figures for the TGI in the experiment with M19-MEL melanoma, in the experiment on RXF-631 renal and with XF 498 CNS were 36.6 µM, 39.8 µM and 33.5 µM, respectively.

With `C1=c2ccccc2=C2C(=C(c3ccccc3)C(c3ccccc3)=NN2c2ccccc2)S1`, the TGI in the experiment with DLD-1 colon, in the experiment with DMS 114 small cell lung, in the experiment with DMS 273 small cell lung, in the experiment with HOP-18 NSCLC, with KM20L2 colon and with LXFL 529 NSCLC was over 100 µM each time. Moreover, the TGI with M19-MEL melanoma and in the experiment on SNB-78 CNS was over 100 µM each time.

`C[N+](C)(Cc1ccc(NC(=O)CCCC(=O)ON2C(=O)CCC2=O)cc1)c1ccccc1`: the TGI in the experiment on DLD-1 colon is over 100 µM; with DMS 273 small cell lung, over 100 µM; in the experiment on HOP-18 NSCLC it was under 0.01 µM; in the experiment on LXFL 529 NSCLC, over 100 µM; in the experiment on M19-MEL melanoma, over 100 µM.

As for `COC(=O)/C(=N\O)C(C(=O)C=C(C)C)C(=O)C(=O)Nc1ccccc1C` (centres undefined), the TGI in the experiment with DLD-1 colon, with DMS 114 small cell lung, in the experiment with DMS 273 small cell lung, in the experiment on HOP-18 NSCLC, in the experiment on KM20L2 colon and with LXFL 529 NSCLC was over 100 µM each time. The TGI in the experiment with M19-MEL melanoma, in the experiment on SNB-78 CNS and in the experiment with XF 498 CNS was over 100 µM each time.

Turning to `COCC12CC(CC1=O)C1C2ON2c3ccccc3C(=O)C12c1ccccc1` (centres undefined), the TGI in the experiment with DLD-1 colon, in the experiment on DMS 114 small cell lung, in the experiment on DMS 273 small cell lung, in the experiment with HOP-18 NSCLC, in the experiment on KM20L2 colon and in the experiment with LXFL 529 NSCLC was over 100 µM throughout. Besides, the TGI in the experiment with SNB-78 CNS and with XF 498 CNS was over 100 µM in each case.
